Test systems include MALME-3M melanoma; NCI-H460 lung; 786-0 renal; NCI-H226 lung; MDA-MB-231 breast; HCT-15 colon; HCT-116 colon; BT-549 breast; SNB-19 CNS; PC-3 prostate.
Assay in all cases: NCI anticancer screen, dose series, 48 h

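Values below derive from 48-hour exposures of cells grown in 96-well plates, with endpoints linearly interpolated between the two concentrations bracketing the appropriate inhibition level. GI50 is the concentration that inhibits growth by half. At the TGI there is no net growth.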 A value given as a limit tells only on which side of the number the result lay.

As for `O=C(Nc1ccc(-n2ccc3c(NC(=O)c4ccccc4)nccc32)cc1)c1ccc(N2CCOCC2)c(C(F)(F)F)c1`, the GI50 in the assay with MALME-3M melanoma is 5.96 µM; in the assay with NCI-H460 lung, 0.0129 µM; in the assay on 786-0 renal it was 0.364 µM; with NCI-H226 lung, 3.18 µM; in the assay with MDA-MB-231 breast it was 4.07 µM; in the assay with HCT-116 colon, 0.035 µM. Also, the GI50 with BT-549 breast is 4.73 µM; in the assay with SNB-19 CNS, 0.481 µM; with PC-3 prostate it was 1.02 µM. Besides, the TGI with MALME-3M melanoma was 41.1 µM; in the assay with NCI-H460 lung, 1.35 µM; in the assay on NCI-H226 lung, 59.4 µM; with MDA-MB-231 breast, > 60.9 µM; with HCT-15 colon it was > 43.4 µM; with HCT-116 colon it was 15.7 µM. For the same compound, the results for the TGI with BT-549 breast, in the assay on SNB-19 CNS and with PC-3 prostate were > 67.9 µM, > 81 µM and 52.5 µM, respectively.
Consider `C#CCN(Cc1nc2cc(C(F)(F)F)ccc2nc1-c1ccccc1)c1ccc(F)cc1`, for which the GI50 with MALME-3M melanoma is 17.9 µM; in the assay with NCI-H460 lung it was 27.8 µM; in the assay on 786-0 renal, 20.4 µM; in the assay on NCI-H226 lung, 42.4 µM; in the assay with MDA-MB-231 breast, 21.6 µM; in the assay with HCT-15 colon it was 29.5 µM. Further, the GI50 in the assay with HCT-116 colon was 20.8 µM; in the assay on BT-549 breast, 48 µM; with SNB-19 CNS, 34.9 µM; in the assay with PC-3 prostate, 32 µM. The TGI with MALME-3M melanoma is 53.5 µM; in the assay with NCI-H460 lung, > 100 µM; in the assay on 786-0 renal, 54 µM; in the assay with NCI-H226 lung, > 100 µM; with MDA-MB-231 breast, 56.8 µM; in the assay with HCT-15 colon it was > 100 µM. The TGI with HCT-116 colon, with BT-549 breast, in the assay on SNB-19 CNS and in the assay with PC-3 prostate was > 100 µM each time.
For the compound `COc1ccc(-c2cc(-c3ccc(Cl)cc3)nc(SCCCCCCC(=O)NO)n2)cc1`, the GI50 is 1.14 µM in the assay on MALME-3M melanoma; 1.29 µM with NCI-H460 lung; 1.16 µM in the assay with 786-0 renal; 1.9 µM in the assay with NCI-H226 lung; 1.74 µM with MDA-MB-231 breast; 1.46 µM in the assay on HCT-15 colon. In addition, the GI50 with HCT-116 colon was 1.35 µM; in the assay on BT-549 breast, 2.16 µM; in the assay with SNB-19 CNS, 1.67 µM; with PC-3 prostate, 1.69 µM. Further, the TGI was 5.5 µM in the assay with MALME-3M melanoma; 8.9 µM in the assay on NCI-H460 lung; 3.26 µM in the assay on 786-0 renal; 23.9 µM in the assay on NCI-H226 lung; 8.89 µM in the assay on MDA-MB-231 breast; 7.72 µM in the assay on HCT-15 colon. In addition, the TGI with HCT-116 colon stood at 7.16 µM; with BT-549 breast it was 14 µM; in the assay on SNB-19 CNS, 23.6 µM; in the assay on PC-3 prostate it was 12.7 µM.
For `COc1ccccc1N1CCN(CCCOc2ccc(C(=O)/C=C3/C(=O)Nc4ccccc43)cc2)CC1`, the GI50 with MALME-3M melanoma was 0.589 µM; in the assay with NCI-H460 lung, 13.5 µM; in the assay with 786-0 renal, 19.7 µM; in the assay with NCI-H226 lung, 14.3 µM; in the assay on MDA-MB-231 breast, 9.63 µM; in the assay with HCT-15 colon, 7.88 µM. Besides, the GI50 in the assay on HCT-116 colon is 5.75 µM; in the assay with BT-549 breast it was 4.42 µM; with SNB-19 CNS it was 40.6 µM; in the assay on PC-3 prostate, 12 µM. Further, the TGI was 22.9 µM in the assay on MALME-3M melanoma; 65.5 µM in the assay on NCI-H460 lung; > 70 µM in the assay with 786-0 renal; 65.7 µM in the assay with NCI-H226 lung; 37.6 µM with MDA-MB-231 breast; > 68.1 µM in the assay with HCT-15 colon. The TGI in the assay on HCT-116 colon is 23.5 µM; in the assay on BT-549 breast, 16.1 µM; in the assay on SNB-19 CNS it was > 100 µM; with PC-3 prostate, > 100 µM.
In the case of `C[C@@]1(O)CCC[C@H]1n1c(=O)c(C(F)F)cc2cnc(NC3CCN(S(C)(=O)=O)CC3)nc21`, the GI50 was 1.29 µM in the assay on MALME-3M melanoma; 0.109 µM in the assay on NCI-H460 lung; 1.9 µM with 786-0 renal; 1.14 µM with MDA-MB-231 breast; 1.74 µM in the assay with HCT-15 colon; 1.05 µM in the assay with HCT-116 colon. For the same compound, the GI50 was 1.94 µM with BT-549 breast, 1.34 µM with SNB-19 CNS and 2.1 µM in the assay with PC-3 prostate. Moreover, the TGI is 5.37 µM in the assay with MALME-3M melanoma; 11.9 µM in the assay on NCI-H460 lung; > 100 µM in the assay on 786-0 renal; 7.04 µM with MDA-MB-231 breast; 56.6 µM in the assay on HCT-15 colon; > 100 µM in the assay with HCT-116 colon. Also, the TGI in the assay with BT-549 breast was 9.39 µM; in the assay on SNB-19 CNS it was 16.8 µM; in the assay on PC-3 prostate, > 100 µM.
Turning to `CCN(CC)CCOc1ccc(Cc2ccccc2)cc1`, the GI50 is 17.2 µM in the assay on MALME-3M melanoma; 22.9 µM in the assay with NCI-H460 lung; 27.6 µM in the assay on 786-0 renal; 69.7 µM in the assay on NCI-H226 lung; 28.2 µM in the assay with MDA-MB-231 breast; 15.1 µM with HCT-15 colon. Further, the GI50 was 34.8 µM in the assay on HCT-116 colon, 31.4 µM in the assay on BT-549 breast, 68.7 µM in the assay with SNB-19 CNS and 26.2 µM in the assay on PC-3 prostate. The TGI in the assay with MALME-3M melanoma was 43.1 µM; in the assay with NCI-H460 lung, 62.1 µM; in the assay on 786-0 renal it was > 100 µM; with NCI-H226 lung it was > 100 µM; in the assay with MDA-MB-231 breast it was > 100 µM; with HCT-15 colon, 53.9 µM. Also, the TGI in the assay on HCT-116 colon, with BT-549 breast, in the assay with SNB-19 CNS and with PC-3 prostate was > 100 µM in each case.
With `Clc1nc(-c2ccccc2)nc(Cl)c1Cl`, the TGI in the assay on MALME-3M melanoma came to 17.6 µM; in the assay on NCI-H460 lung, 42.7 µM; in the assay on 786-0 renal it was 22.8 µM; in the assay on NCI-H226 lung, 28.1 µM; with MDA-MB-231 breast, 27.1 µM; in the assay on HCT-15 colon, 21.2 µM. Further, the TGI in the assay on HCT-116 colon was 17 µM; in the assay on BT-549 breast it was 35.6 µM; with SNB-19 CNS, > 54.2 µM; in the assay on PC-3 prostate it was 24.6 µM.
With `NC(N)=NC(N)=Nc1ccc(S(N)(=O)=O)cc1`, the TGI in the assay on MALME-3M melanoma, with NCI-H460 lung, in the assay on 786-0 renal, in the assay with NCI-H226 lung, in the assay on MDA-MB-231 breast and with HCT-15 colon was > 100 µM throughout. The TGI in the assay on HCT-116 colon, with BT-549 breast, in the assay with SNB-19 CNS and with PC-3 prostate was > 100 µM throughout.
